# Peptide text beside a SMILES is read from it. * marks the point of attachment. X2 = OC[C@H]1O[C@@H](n2cnc3c(N*)ncnc32)[C@@H](O)[C@@H]1O
# Target: Dipeptidyl peptidase 4 (Homo sapiens) (UniProt P27487)
# Assay: Ratio of Vmax/Km for human recombinant CD26 assessed as hydrolysis
# Chain of Dipeptidyl peptidase 4 (Homo sapiens) (P27487 whole entry, looked up): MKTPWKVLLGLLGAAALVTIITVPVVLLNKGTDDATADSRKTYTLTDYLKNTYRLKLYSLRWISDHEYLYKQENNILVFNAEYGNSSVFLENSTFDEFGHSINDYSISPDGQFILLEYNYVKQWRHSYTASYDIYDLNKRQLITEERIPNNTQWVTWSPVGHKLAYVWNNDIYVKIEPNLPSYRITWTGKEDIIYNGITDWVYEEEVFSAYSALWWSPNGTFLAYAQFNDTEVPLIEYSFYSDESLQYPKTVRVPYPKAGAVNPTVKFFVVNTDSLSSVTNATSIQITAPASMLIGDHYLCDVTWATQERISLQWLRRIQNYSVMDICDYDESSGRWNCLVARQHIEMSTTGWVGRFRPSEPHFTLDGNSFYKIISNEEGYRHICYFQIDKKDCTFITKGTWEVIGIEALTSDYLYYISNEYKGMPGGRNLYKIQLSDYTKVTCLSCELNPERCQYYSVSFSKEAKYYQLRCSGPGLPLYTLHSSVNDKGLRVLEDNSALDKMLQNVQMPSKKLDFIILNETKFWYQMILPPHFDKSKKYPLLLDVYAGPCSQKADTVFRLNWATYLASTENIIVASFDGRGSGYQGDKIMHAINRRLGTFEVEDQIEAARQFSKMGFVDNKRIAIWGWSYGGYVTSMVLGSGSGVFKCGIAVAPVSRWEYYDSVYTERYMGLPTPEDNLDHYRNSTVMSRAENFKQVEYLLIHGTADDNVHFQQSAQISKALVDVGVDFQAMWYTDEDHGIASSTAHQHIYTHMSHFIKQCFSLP
row,Vmax/Km,Structure (SMILES)
1,0.13,N[C@@H](CC(=O)O)C(=O)N1CCC[C@H]1C(=O)Nc1ccc2ncccc2c1
2,1.3,CC(C)[C@H](N)C(=O)N1CCC[C@H]1C(=O)Nc1ccc2ncccc2c1
3,0.5,COc1cccc2c1C(=O)c1c(O)c3c(c(O)c1C2=O)C[C@@](O)(C(=O)CO)C[C@@H]3O[C@H]1C[C@H](NC(=O)[C@@H]2CCCN2C(=O)[C@@H](N)C(C)C)[C@H](O)[C@H](C)O1

row,Structure (SMILES),Vmax/Km
1,CC(C)[C@H](N)C(=O)N1CCC[C@H]1C(=O)N[C@H](C(=O)N1CCC[C@H]1C(=O)Nc1ncnc2c1ncn2[C@@H]1O[C@H](CO)[C@@H](O)[C@@H]1O)C(C)C (H-VPVP-X2),0.18
